The term ΔTm denotes the shift of the melting midpoint relative to a reference.

Assay [1] addresses T1, PAPD5 (Homo sapiens, UniProt Q8NDF8).
T1 construct: made in house
Put plainly: DSF binding assay (shift in temperature). Particulars: shift in temperature at 100 μM of the compound. On the procedure:
(§1) Qualitative measure of RNA oligo-extension inhibition for the tested compounds, expressed as range from minimal activity (0) to that of compound 1 (+++), and results of a DSF binding assay (shown as shift in temperature at 100 μM of the compound) are shown in the Table 2 below.

Assay [2] concerns the target T1, PAPD5. Put plainly: RNA oligo-adenylation (oligo-extension) inhibition assay with recombinant PAPD5. The assay is classed as biochemical. As to conditions: qualitative measure of RNA oligo-extension inhibition, relative to compound 1. Details: key: minimal activity (0); range from minimal activity (0) to that of compound 1 (+++); range from minimal activity (0) to that of compound 1 (+++); that of compound 1 (+++). On the procedure:
An in vitro RNA polyadenylation assay using recombinant PAPD5, ATP and an oligonucleotide substrate utilized the following phenomenon: ATP utilization by PAPD5 reads out as a decreased luminescence signal produced by luciferase (KinaseGlo, Promega, Madison, WI).
as §1

T1 sequence (Q8NDF8 68-698 isoform Q8NDF8-5 limits assumed): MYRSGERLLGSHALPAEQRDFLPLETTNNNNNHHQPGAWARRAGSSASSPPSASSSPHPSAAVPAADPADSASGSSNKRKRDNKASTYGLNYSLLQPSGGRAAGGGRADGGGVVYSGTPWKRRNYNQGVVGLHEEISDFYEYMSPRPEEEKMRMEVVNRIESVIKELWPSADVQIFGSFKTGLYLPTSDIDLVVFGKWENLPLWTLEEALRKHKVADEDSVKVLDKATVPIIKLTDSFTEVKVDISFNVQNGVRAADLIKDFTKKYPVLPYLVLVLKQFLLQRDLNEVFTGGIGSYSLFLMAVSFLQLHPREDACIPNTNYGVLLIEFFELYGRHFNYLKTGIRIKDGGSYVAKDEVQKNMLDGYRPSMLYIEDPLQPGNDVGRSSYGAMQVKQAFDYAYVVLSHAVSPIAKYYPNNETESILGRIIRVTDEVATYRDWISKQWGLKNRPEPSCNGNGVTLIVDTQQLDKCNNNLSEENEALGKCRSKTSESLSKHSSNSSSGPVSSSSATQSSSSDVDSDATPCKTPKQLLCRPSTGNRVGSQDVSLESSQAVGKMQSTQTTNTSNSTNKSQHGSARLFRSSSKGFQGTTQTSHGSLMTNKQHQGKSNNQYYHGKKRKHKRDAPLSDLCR

In the case of `COCCCOc1cc2ncc(C#N)c(Nc3cccc(O)c3C(=O)O)c2cc1OC` [Compound 55A, 2-[[3-cyano-6-methoxy-7-(3-methoxypropoxy)-4-quinolyl]amino]-6-hydroxy-benzoic acid], at PAPD5 [1], the ΔTm at 100 µM amounted to 13.9 °C. Also, the “Inhibition of PAPD5 RNA oligo adenylation” value (“Inhibition” for short) at PAPD5 [2] is “+++”.
With `COCCCOc1cc2ncc(C#N)c(-n3ccc(=O)c(C(=O)O)c3)c2cc1OC` [Compound 56A, 1-[3-cyano-6-methoxy-7-(3-methoxypropoxy)-4-quinolyl]-4-oxo-pyridine-3-carboxylic acid], the ΔTm at 100 µM on PAPD5 [1] amounted to 0.4 °C. In addition, the “Inhibition” value on PAPD5 [2] amounted to 0.
The corresponding values for `COCCCOc1cc2ncc(C(=O)N(C)C)c(Nc3ccccc3C(=O)O)c2cc1Br` [Compound 57A, 2-[[6-bromo-3-(dimethylcarbamoyl)-7-(3-methoxypropoxy)-4-quinolyl]amino]benzoic acid] are 9.8 °C and “+++”.
Regarding `COCCCOc1cc2ncc(-c3ncco3)c(Nc3ccccc3C(=O)O)c2cc1OC` [Compound 58A, 2-[[6-methoxy-7-(3-methoxypropoxy)-3-oxazol-2-yl-4-quinolyl]amino]benzoic acid], on PAPD5 [1], the thermal shift (ΔTm) at 100 µM was found to be 8.5 °C. The “Inhibition” value at PAPD5 [2] is on record as “+”.
In the same order, the values of `NS(=O)(=O)c1cnc2ccc(Br)cc2c1Nc1ccccc1C(=O)O` [Compound 61A, 2-[(6-bromo-3-sulfamoyl-4-quinolyl)amino]benzoic acid] are 11.1 °C and “+++”.
The corresponding values for `NS(=O)(=O)c1cnc2ccc(Cl)cc2c1Nc1ccccc1C(=O)O` [Compound 63A, 2-[(6-chloro-3-sulfamoyl-4-quinolyl)amino]benzoic acid] are 9.3 °C and “+++”.
As for `O=C(O)c1ccccc1Nc1c(S(=O)(=O)N2CCOCC2)cnc2ccc(Br)cc12` [Compound 70A, 2-[(6-bromo-3-morpholinosulfonyl-4-quinolyl)amino]benzoic acid], the ΔTm at 100 µM at PAPD5 [1] was 13.7 °C. Besides, the “Inhibition” value at PAPD5 [2] is on record as “+++”.
As to `O=C(O)c1c(O)cccc1Nc1c(S(=O)(=O)N2CCOCC2)cnc2ccc(Br)cc12` [Compound 78A, 2-[(6-bromo-3-morpholinosulfonyl-4-quinolyl)amino]-6-hydroxy-benzoic acid], the ΔTm at 100 µM at PAPD5 [1] stood at 17.1 °C. In addition, the “Inhibition” value on PAPD5 [2] was “+++”.
Regarding `COc1cccc(Nc2c(S(=O)(=O)N3CCOCC3)cnc3ccc(Br)cc23)c1C(=O)O` [Compound 78A-INT, 2-[(6-bromo-3-morpholinosulfonyl-4-quinolyl)amino]-6-methoxy-benzoic acid], the ΔTm at 100 µM on PAPD5 [1] came out at 1.1 °C. The “Inhibition” value on PAPD5 [2] turned out to be 0.
In the same order, the values of `O=C(O)c1ccccc1Nc1c(S(=O)(=O)N2CCOCC2)cnc2ccc(Cl)cc12` [Compound 80A, 2-[(6-chloro-3-morpholinosulfonyl-4-quinolyl)amino]benzoic acid] are 16.4 °C and “+++”.
In the same order, the values of `O=C(O)c1c(O)cccc1Nc1c(-c2ncco2)cnc2ccc(Cl)cc12` [Compound 82A, 2-[(6-chloro-3-oxazol-2-yl-4-quinolyl)amino]-6-hydroxy-benzoic acid] are 13.5 °C and “+++”.

The values are drawn from patent publication US12486234B2, “PAPD5 inhibitors and methods of use thereof” (Children's Medical Center Corporation, priority 2019, dated 2025).
